According to ChEMBL document CHEMBL5576037, “Discovery of the first ataxia telangiectasia and Rad3-related (ATR) degraders for cancer treatment” (Eur J Med Chem, 2024):
pIC50: −log10 of the molar value. Activity calls are given as the source filed them. The calls are words filed in the database; no cut-off is given here.

Assays:
LoVo [1] = experiment: Synergistic antitumor activity against human LoVo cells xenografted in BALB/c nude mouse assessed as tumor growth inhibition at 12.5 mg/kg, ip administered once daily for 15 days in presence of cisplatin relative to control; assay type: functional; conditions: 360 h, time 15 day, read-out: TGI
[2] = Toxicity in BALB/c nude mouse xenografted with human LoVo cells assessed as effect on spleen at 12.5 to 25 mg/kg, ip administered twice daily for 15 days by H and E staining based analysis; assay type: organism-based; conditions: in vivo, 360 h, dose 12.5-25 mg/kg, time 15 day
LoVo [3] = experiment: Induction of LBP degradation in human LoVo cells at 1 uM incubated for 24 hrs by global proteomic profiling analysis; assay type: cell-based
[4] = Toxicity in BALB/c nude mouse xenografted with human LoVo cells assessed as body weight loss at 12.5 to 25 mg/kg, ip administered twice daily for 15 days; assay type: organism-based; conditions: in vivo, 360 h, dose 12.5-25 mg/kg, time 15 day
[5] = Toxicity in BALB/c nude mouse xenografted with human LoVo cells assessed as effect on lung at 12.5 to 25 mg/kg, ip administered twice daily for 15 days by H and E staining based analysis; assay type: organism-based; conditions: in vivo, 360 h, dose 12.5-25 mg/kg, time 15 day
[6] = Toxicity in BALB/c nude mouse xenografted with human LoVo cells assessed as effect on kidney at 12.5 to 25 mg/kg, ip administered twice daily for 15 days by H and E staining based analysis; assay type: organism-based; conditions: in vivo, 360 h, dose 12.5-25 mg/kg, time 15 day
[7] = target: T1, Protein cereblon/Serine/threonine-protein kinase ATR (Homo sapiens, UniProt Q13535+Q96SW2); experiment: PROTAC activity at CRBN/ATR in human LoVo cells assessed as induction of ATR degradation at 1 uM incubated for 24 hrs by global proteomic profiling analysis; assay type: cell-based
[8] = target: T2, ATPase family gene 2 protein homolog B (Homo sapiens) (UniProt Q9BVQ7); experiment: Induction of SPATA5L1 degradation in human LoVo cells at 1 uM incubated for 24 hrs by global proteomic profiling analysis; assay type: cell-based
T2 sequence (whole entry): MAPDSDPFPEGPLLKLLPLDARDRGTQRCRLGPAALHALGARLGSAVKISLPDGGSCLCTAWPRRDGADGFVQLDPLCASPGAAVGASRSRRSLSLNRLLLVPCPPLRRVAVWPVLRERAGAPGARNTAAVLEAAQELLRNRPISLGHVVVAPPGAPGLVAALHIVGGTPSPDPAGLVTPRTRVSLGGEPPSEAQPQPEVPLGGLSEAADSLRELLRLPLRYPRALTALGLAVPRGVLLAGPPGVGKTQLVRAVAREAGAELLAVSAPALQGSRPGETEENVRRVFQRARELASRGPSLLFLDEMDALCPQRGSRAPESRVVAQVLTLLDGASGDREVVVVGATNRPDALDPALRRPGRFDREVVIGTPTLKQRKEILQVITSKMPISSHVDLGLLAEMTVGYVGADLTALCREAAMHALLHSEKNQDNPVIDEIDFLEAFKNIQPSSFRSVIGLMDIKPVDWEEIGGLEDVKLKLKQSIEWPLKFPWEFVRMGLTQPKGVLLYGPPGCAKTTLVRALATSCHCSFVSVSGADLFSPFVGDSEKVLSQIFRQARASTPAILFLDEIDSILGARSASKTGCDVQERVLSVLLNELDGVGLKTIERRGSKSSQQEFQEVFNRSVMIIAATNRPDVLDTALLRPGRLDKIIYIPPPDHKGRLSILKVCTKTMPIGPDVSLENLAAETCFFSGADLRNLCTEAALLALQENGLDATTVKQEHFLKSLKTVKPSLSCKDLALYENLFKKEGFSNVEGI

[9] = target: T1, Protein cereblon/Serine/threonine-protein kinase ATR; experiment: PROTAC activity at CRBN/ATR in human LoVo cells assessed as induction of ATR degradation at 2.5 uM preincubated with MG132 for 4 hrs followed by compound addition and measured after 48 hrs by Western blot analysis; assay type: cell-based
[10] = target: T3, Serine/threonine-protein kinase ATR (Homo sapiens, UniProt Q13535); experiment: Inhibition of ATR (unknown origin)
[11] = MRT (0 to infinity) in BALB/c nude mouse xenografted with human LoVo cells at 25 mg/kg, ip administered as single dose and measured after 12 hrs by LC-MS/MS analysis; assay type: ADME, organism-based; conditions: in vivo
LoVo [12] = experiment: Cell cycle arrest in human LoVo cells assessed as accumulation of cells at G0/G1 phase at 1 uM incubated for 72 hrs by PI staining based flow cytometric analysis (reference value: 52.3 %); assay type: functional
HCT-116 = experiment: Antiproliferative activity against human HCT-116 cells expressing wildtype ATM incubated for 72 hrs by CCK8 assay; assay type: functional, cell-based; conditions: HCT-116, 72 h
[13] = target: T1, Protein cereblon/Serine/threonine-protein kinase ATR; experiment: In vivo PROTAC activity at CRBN/ATR in BALB/c nude mouse xenografted with human LoVo cells assessed as reduction in ATR phosphorylation at Thr1989 residue administered intraperitoneally once daily for 15 days by Western blot analysis; assay type: functional, organism-based; conditions: dose 12.5-25 mg/kg, route ip, time 15.0 day
LoVo [14] = experiment: Induction of DNA damage in human LoVo cells assessed as increase in gammaH2AX expression at 0.5 to 1 uM incubated for 72 hrs by DAPI staining based immunofluorescence analysis; assay type: functional, cell-based; conditions: dose 0.5-1 µM
LoVo [15] = experiment: Downregulation of total ATR protein level in human LoVo cells incubated for 72 hrs by Western blot analysis; assay type: functional, cell-based; conditions: dose 0.16-10 µM
LoVo [16] = experiment: Induction of apoptosis in human LoVo cells assessed as apoptotic rate at 0.5 uM incubated for 48 hrs by Annexin V-FITC/PI staining based flow cytometric analysis (reference value: 5.32 %); assay type: functional
[17] = Toxicity in BALB/c nude mouse xenografted with human LoVo cells assessed as effect on heart at 12.5 to 25 mg/kg, ip administered twice daily for 15 days by H and E staining based analysis; assay type: organism-based; conditions: in vivo, 360 h, dose 12.5-25 mg/kg, time 15 day
[18] = target: T3, Serine/threonine-protein kinase ATR; experiment: Inhibition of ATR phosphorylation at Thr1989 residue in human LoVo cells incubated for 72 hrs by Western blot analysis; assay type: cell-based; conditions: dose 0.16-10 µM
[19] = target: T1, Protein cereblon/Serine/threonine-protein kinase ATR; experiment: PROTAC activity at CRBN/ATR in human LoVo cells assessed as induction of ATR degradation measured after 72 hrs by Western blot analysis; assay type: cell-based
LoVo [20] = experiment: Antitumor activity against human LoVo cells xenografted in BALB/c nude mouse assessed as induction of DNA damage by measuring increase in gammaH2AX protein level; assay type: functional, cell-based
[21] = AUC (0 to t) in BALB/c nude mouse xenografted with human LoVo cells at 25 mg/kg, ip administered as single dose and measured after 12 hrs by LC-MS/MS analysis; assay type: ADME, organism-based; conditions: in vivo
[22] = target: T1, Protein cereblon/Serine/threonine-protein kinase ATR; experiment: PROTAC activity at CRBN/ATR in human LoVo cells assessed as increase in ATR-CRBN protein-protein interaction by co-immunoprecipitation analysis; assay type: cell-based
LoVo [23] = experiment: Antiproliferative activity against ATM deficient human LoVo cells incubated for 72 hrs by CCK8 assay; assay type: functional, cell-based
[24] = target: T1, Protein cereblon/Serine/threonine-protein kinase ATR; experiment: PROTAC activity at CRBN/ATR in human LoVo cells assessed as induction of ATR degradation at 2.5 uM by Western blot analysis; assay type: cell-based; conditions: time 6-72 hrs, TDE = time-dependent effect
[25] = target: Phosphatidylinositol 4,5-bisphosphate 3-kinase catalytic subunit alpha isoform (Homo sapiens) (UniProt P42336); experiment: Induction of PI3K-alpha degradation in human LoVo cells at 0.16 to 10 uM incubated for 72 hrs by Western blot analysis; assay type: cell-based; conditions: dose 0.16-10 µM

Activity [7]: Active | Activity [8]: Active | Activity [9]: inactive | inhibition [10]: Active | MRT inf [11]: 4.65 h | pIC50 (HCT-116): 5.29 | Activity [13]: Dose-Dependent Effect | inhibition [18]: Dose-Dependent Effect | Activity [19]: Dose-Dependent Effect | DC50 [19]: 530 nM | AUC(0-t) at 12 h [21]: 4550 ng·h/mL | Activity [22]: Active | pIC50 (LoVo [23]): 6.33 | Activity [24]: Tde | Activity [25]: inactive
SMILES: C[C@@H]1COCCN1c1cc(C2([S@@](C)(=O)=NC(=O)CCc3cn(CCCCCCCC(=O)Nc4cccc5c4C(=O)N(C4CCC(=O)NC4=O)C5=O)nn3)CC2)nc(-c2ccnc3[nH]ccc23)n1 (some centres not stated)
inhibition in vivo at 12.5 mg/kg (LoVo [1]): 60.6% | Activity [2]: Non-Toxic | Activity (LoVo [3]): Active | Activity [4]: Non-Toxic | Activity [5]: Non-Toxic | Activity [6]: Non-Toxic | Activity (LoVo [12]): 67.3% | Activity (LoVo [14]): Active | Activity (LoVo [15]): Dose-Dependent Effect | Activity (LoVo [16]): 23.91% | Activity [17]: Non-Toxic | Activity (LoVo [20]): Active
